Measured values taken from PubChem BioAssay (NCI).
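Five compound concentrations were applied to cells in 96-well plates for 48 hours; endpoints were derived by simple linear interpolation of the resulting dose-response curve. GI50: concentration for 50% inhibition of growth. The concentration for full growth arrest is given as TGI.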

Tests used:
Assay in all cases: growth of human tumour cells (NCI), 48 h
[1] = tested on: 786-0 renal
[2] = tested on: A498 renal
[3] = tested on: A549 NSCLC
[4] = tested on: ACHN renal
[5] = tested on: BT-549 breast
[6] = tested on: CAKI-1 renal
[7] = tested on: CCRF-CEM leukemia
[8] = tested on: COLO 205 colon
[9] = tested on: DU-145 prostate
[10] = tested on: EKVX NSCLC
[11] = tested on: HCC-2998 colon
[12] = tested on: HCT-116 colon
[13] = tested on: HCT-15 colon
[14] = tested on: HL-60(TB) leukemia
[15] = tested on: HOP-62 NSCLC
[16] = tested on: HOP-92 NSCLC
[17] = tested on: HS 578T breast
[18] = tested on: HT29 colon
[19] = tested on: IGROV1 ovarian
[20] = tested on: K-562 leukemia
[21] = tested on: KM12 colon
[22] = tested on: LOX IMVI melanoma
[23] = tested on: M14 melanoma
[24] = tested on: MALME-3M melanoma
[25] = tested on: MCF7 breast
[26] = tested on: MDA-MB-231 breast
[27] = tested on: MDA-MB-435
[28] = tested on: MDA-MB-468 breast
[29] = tested on: MOLT-4 leukemia
[30] = tested on: NCI-H226 lung
[31] = tested on: NCI-H23 lung
[32] = tested on: NCI-H460 lung
[33] = tested on: NCI-H522 lung
[34] = tested on: NCI/ADR-RES ovarian
[35] = tested on: OVCAR-3 ovarian
[36] = tested on: OVCAR-4 ovarian
[37] = tested on: OVCAR-5 ovarian
[38] = tested on: OVCAR-8 ovarian
[39] = tested on: PC-3 prostate
[40] = tested on: RPMI-8226 leukemia
[41] = tested on: RXF 393 renal
[42] = tested on: SF-268 CNS
[43] = tested on: SF-295 CNS
[44] = tested on: SF-539 CNS
[45] = tested on: SK-MEL-2 melanoma
[46] = tested on: SK-MEL-28 melanoma
[47] = tested on: SK-MEL-5 melanoma
[48] = tested on: SK-OV-3 ovarian
[49] = tested on: SN12C renal
[50] = tested on: SNB-19 CNS
[51] = tested on: SNB-75 CNS
[52] = tested on: SW-620 colon
[53] = tested on: T-47D breast
[54] = tested on: TK-10 renal
[55] = tested on: U251 CNS
[56] = tested on: UACC-257 melanoma
[57] = tested on: UACC-62 melanoma
[58] = tested on: UO-31 renal

Cc1ccccc1[C@H]1C(C(=O)c2ccc(Cl)cc2)C2(N[C@@H]1c1ccccc1)C(=O)Nc1ccccc12 (stereo partly specified)
GI50 [1]: 6.9 µM | TGI [1]: 16.3 µM | GI50 [2]: 6.77 µM | TGI [2]: 12.9 µM | GI50 [3]: 5.81 µM | TGI [3]: 20.4 µM | GI50 [4]: 6.46 µM | TGI [4]: 14.8 µM | GI50 [5]: 5.47 µM | TGI [5]: 11 µM | GI50 [6]: 3.62 µM | TGI [6]: 11.6 µM | GI50 [7]: 4.8 µM | TGI [7]: 26.8 µM | GI50 [8]: 7.31 µM | TGI [8]: 13.8 µM | GI50 [9]: 4.91 µM | TGI [9]: 12.8 µM | GI50 [10]: 4.96 µM | TGI [10]: 17.2 µM | GI50 [11]: 5.95 µM | TGI [11]: 12.2 µM | GI50 [12]: 2.46 µM | TGI [12]: 8.7 µM | GI50 [13]: 5.11 µM | TGI [13]: 14.1 µM | GI50 [14]: 8.01 µM | TGI [14]: 30.4 µM | GI50 [15]: 6.26 µM | TGI [15]: 13 µM | GI50 [16]: 2.47 µM | TGI [16]: 8.55 µM | GI50 [17]: 4.76 µM | TGI [17]: 15.3 µM | GI50 [18]: 3.42 µM | TGI [18]: 11.4 µM | GI50 [19]: 5.63 µM | TGI [19]: 14 µM | GI50 [20]: 5.11 µM | TGI [20]: 42.3 µM | GI50 [21]: 6.73 µM | TGI [21]: 16.2 µM | GI50 [22]: 2.51 µM | TGI [22]: 7.97 µM | GI50 [23]: 5.62 µM | TGI [23]: 11.7 µM | GI50 [24]: 6 µM | TGI [24]: 11.6 µM | GI50 [25]: 2.26 µM | TGI [25]: 12.4 µM | GI50 [26]: 4.31 µM | TGI [26]: 9.35 µM | GI50 [27]: 3.65 µM | TGI [27]: 9.28 µM | GI50 [28]: 0.957 µM | TGI [28]: 2.74 µM | GI50 [29]: 4.14 µM | TGI [29]: 33 µM | GI50 [30]: 5.91 µM | TGI [30]: 12.1 µM | GI50 [31]: 5.67 µM | TGI [31]: 12.2 µM | GI50 [32]: 6.15 µM | TGI [32]: 14.9 µM | GI50 [33]: 4.46 µM | TGI [33]: 11.5 µM | GI50 [34]: 4.41 µM | TGI [34]: 10.8 µM | GI50 [35]: 1.64 µM | TGI [35]: 7.17 µM | GI50 [36]: 6.08 µM | TGI [36]: 16.2 µM | GI50 [37]: 4.37 µM | TGI [37]: 9.67 µM | GI50 [38]: 6.05 µM | TGI [38]: 13.4 µM | GI50 [39]: 2.08 µM | TGI [39]: 10.5 µM | GI50 [40]: 7.66 µM | TGI [40]: 28.3 µM | GI50 [41]: 1.42 µM | TGI [41]: 6.02 µM | GI50 [42]: 5.73 µM | TGI [42]: 17.1 µM | GI50 [43]: 5.3 µM | TGI [43]: 13.2 µM | GI50 [44]: 6.95 µM | TGI [44]: 13.6 µM | GI50 [45]: 5.83 µM | TGI [45]: 12.1 µM | GI50 [46]: 5.91 µM | TGI [46]: 11.7 µM | GI50 [47]: 5.25 µM | TGI [47]: 10.6 µM | GI50 [48]: 7.41 µM | TGI [48]: 31.5 µM | GI50 [49]: 4.92 µM | TGI [49]: 10.1 µM | GI50 [50]: 8.35 µM | TGI [50]: 26.6 µM | GI50 [51]: 2.63 µM | TGI [51]: 14.5 µM | GI50 [52]: 5.54 µM | TGI [52]: 13.8 µM | GI50 [53]: 4.91 µM | TGI [53]: 11.6 µM | GI50 [54]: 6.86 µM | TGI [54]: 15.8 µM | GI50 [55]: 5.56 µM | TGI [55]: 13.1 µM | GI50 [56]: 5.81 µM | TGI [56]: 15.3 µM | GI50 [57]: 2.78 µM | TGI [57]: 8.48 µM | GI50 [58]: 4.6 µM | TGI [58]: 10.8 µM
